Experimental data reported in patent US20200288710A1, “SUBSTITUTED SULPHONAMIDES FOR CONTROLLING ANIMAL PESTS” (BAYER CROPSCIENCE AKTIENGESELLSCHAFT, priority 2016, published 2020).

Columns and labels:
Type in all cases: in vivo
[1] = test system: Myzus persicae; test: Myzus persicae spray test (Chinese cabbage leaf discs); conditions: foliar, 120 h, 500 g/ha, after 5-6 days, read-out: efficacy
Summary of the method: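 Formulated compound in acetone/dimethylformamide, diluted in water with 1000 ppm emulsifier, was sprayed onto Brassica pekinensis leaf discs carrying mixed-stage Myzus persicae. Percent mortality was read 5-6 days later (0% = no aphids killed, 100% = all killed).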

[2] = test system: Meloidogyne incognita; test: Meloidogyne incognita test; conditions: 336 h, lettuce, after 14 days, read-out: nematicidal efficacy (formation of galls)
Summary of the method: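 Gall formation on lettuce roots scored after 14 days: 0% means gall count equals untreated control, 100% means none. Sand vessels held the compound (acetone concentrate diluted in water), southern root-knot nematode egg/larvae suspension and lettuce seeds.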

[3] = test system: Myzus persicae; test: Myzus persicae oral test; conditions: 120 h, 20 ppm, oral uptake, after 5 days, read-out: efficacy
Summary of the method: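 Aphids of mixed ages imbibe, through parafilm, compound solution (acetone stock, water-diluted) combined with sugar-supplemented IPL41 medium to 200 μl. Efficacy read at day 5 as percent killed, 0% meaning no deaths.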

| SMILES | pest or weed control at 500 g/ha [1] [%] | pest or weed control at 20 ppm [2] [%] | pest or weed control at 20 ppm [3] [%] |
| --- | --- | --- | --- |
| Cc1cc(C(=O)NS(=O)(=O)c2ccccc2Cl)nn1-c1c(F)cccc1F [Example 1] | 100 | 100 | 100 |
| Cn1nc(C(=O)NS(=O)(=O)c2c(Cl)cccc2Cl)nc1-c1c(F)cccc1F [Example 13] | 100 | 90 | 100 |
| Cn1nc(C(=O)NS(=O)(=O)c2ccccc2Cl)nc1-c1ccccc1Cl [Example 14] | 90 | 90 | 100 |
| COc1ccc(Cl)c(S(=O)(=O)NC(=O)c2nc(-c3ccccc3Cl)n(C)n2)c1 [Example 15] | 90 | 90 | 100 |
| Cc1ccccc1-c1nc(C(=O)NS(=O)(=O)c2ccccc2C)cn1C [Example 29] | 100 | 90 | 100 |
| Cn1cc(C(=O)NS(=O)(=O)c2cccc(Cl)c2)nc1-c1ccccc1Cl [Example 33] | 90 | 100 | 100 |
| Cn1cc(C(=O)NS(=O)(=O)c2cccc(Cl)c2Cl)nc1-c1ccccc1Cl [Example 38] | 90 | 100 | 100 |
| Cc1c(C(=O)NS(=O)(=O)c2ccccc2)nc(-c2ccccc2Cl)n1C [Example 39] | 90 | 90 | 90 |
| CCn1cc(C(=O)NS(=O)(=O)c2ccccc2)nc1-c1ccccc1Cl [Example 41] | 90 | 90 | 90 |
| Cn1cc(C(=O)NS(=O)(=O)c2ccc(Cl)cc2)nc1-c1c(Cl)cccc1Cl [Example 43] | 90 | 100 | 90 |
| Cn1cc(C(=O)NS(=O)(=O)c2ccccc2)nc1-c1c(Cl)cccc1Cl [Example 44] | 90 | 100 | 90 |
| Cn1cc(C(=O)NS(=O)(=O)c2cccc(Cl)c2)nc1-c1c(F)cccc1F [Example 45] | 90 | 100 | 90 |
| Cn1cc(C(=O)NS(=O)(=O)c2ccc(Cl)cc2)nc1-c1ccccc1F [Example 51] | 90 | 100 | 90 |
| Cn1cc(C(=O)NS(=O)(=O)c2ccccc2OC(F)(F)F)nc1-c1ccccc1Cl [Example 55] | 90 | 90 | 100 |
| Cn1cc(C(=O)NS(=O)(=O)Cc2ccccc2Cl)nc1-c1ccccc1Cl [Example 62] | 90 | 90 | 100 |
| CCn1cc(C(=O)NS(=O)(=O)c2ccccc2Cl)nc1-c1ccccc1Cl [Example 67] | 90 | 90 | 100 |
| CCn1cc(C(=O)NS(=O)(=O)c2c(Cl)cccc2Cl)nc1-c1ccccc1Cl [Example 69] | 90 | 90 | 100 |
| Cc1c(C(=O)NS(C)(=O)=O)nc(-c2ccccc2Cl)n1C [Example 71] | 90 | 90 | 100 |
| CC(C)S(=O)(=O)NC(=O)c1cn(C)c(-c2c(Cl)cccc2Cl)n1 [Example 81] | 90 | 100 | 90 |
| Cn1cc(C(=O)NS(=O)(=O)c2c(Cl)cccc2Cl)nc1-c1c(F)cccc1F [Example 93] | 90 | 90 | 100 |
| Cn1cc(C(=O)NS(=O)(=O)c2c(Cl)cccc2Cl)nc1-c1ccccc1F [Example 96] | 100 | 100 | 100 |
| COc1ccc(Cl)c(S(=O)(=O)NC(=O)c2cn(C)c(-c3ccccc3C)n2)c1 [Example 98] | 90 | 90 | 100 |
| Cc1ccccc1-c1nc(C(=O)NS(=O)(=O)c2c(Cl)cccc2Cl)cn1C [Example 99] | 90 | 90 | 100 |
| Cn1cc(C(=O)NS(=O)(=O)c2cccc(Cl)c2)nc1-c1c(F)cccc1Cl [Example 113] | 90 | 100 | 100 |

| SMILES | pest or weed control at 500 g/ha [1] [%] | pest or weed control at 20 ppm [2] [%] | pest or weed control at 20 ppm [3] [%] |
| --- | --- | --- | --- |
| Cn1cc(C(=O)NS(=O)(=O)c2ccc(Cl)cc2)nc1-c1c(F)cccc1Cl [Example 114] | 90 | 100 | 100 |
| Cn1cc(C(=O)NS(=O)(=O)c2ccccc2OC(F)(F)F)nc1-c1c(F)cccc1F [Example 118] | 100 | 90 | 100 |
| Cn1cc(C(=O)NS(=O)(=O)c2ccccc2Br)nc1-c1c(F)cccc1F [Example 119] | 100 | 90 | 100 |
| COc1ccc(Br)cc1S(=O)(=O)NC(=O)c1cn(C)c(-c2c(F)cccc2Cl)n1 [Example 156] | 100 | 90 | 100 |
| Cn1nc(C(=O)NS(=O)(=O)c2ccccc2Br)nc1-c1c(F)cccc1F [Example 158] | 100 | 90 | 100 |
| CCSc1ccccc1S(=O)(=O)NC(=O)c1cn(C)c(-c2c(F)cccc2F)n1 [Example 169] | 100 | 90 | 100 |
| CC(C)Nc1cccc(F)c1S(=O)(=O)NC(=O)c1cn(C)c(-c2c(F)cccc2F)n1 [Example 178] | 90 | 100 | 100 |
| CCSc1cccc(Cl)c1S(=O)(=O)NC(=O)c1cn(C)c(-c2c(F)cccc2F)n1 [Example 179] | 90 | 90 | 100 |
| Cc1cc(S(=O)(=O)NC(=O)c2cn(C)c(-c3c(F)cccc3F)n2)c(C)s1 [Example 182] | 90 | 100 | 100 |
| Cn1cc(C(=O)NS(=O)(=O)c2cscc2Br)nc1-c1c(F)cccc1F [Example 183] | 100 | 100 | 100 |
| Cc1ccsc1S(=O)(=O)NC(=O)c1cn(C)c(-c2c(F)cccc2F)n1 [Example 184] | 90 | 100 | 100 |
| CC(C)S(=O)(=O)NC(=O)c1nc(-c2ccccc2Cl)n(C)c1Cl [Example 206] | 100 | 100 | 90 |
| Cn1cc(C(=O)NS(=O)(=O)c2ccccc2Cl)nc1-c1ccccc1Cl [Example 225] | 100 | 80 | 100 |
| Cc1[nH]c(-c2ccc(Cl)cc2)nc1C(=O)NS(=O)(=O)C(C)C [Example 235] | 100 | 90 | 100 |
| Cc1[nH]c(-c2ccccc2Cl)nc1C(=O)NS(=O)(=O)c1ccccc1Cl [Example 238] | 100 | 100 | 100 |
| Cc1cc(C(=O)NS(=O)(=O)c2ccccc2Br)nn1-c1c(F)cccc1F [Example 257] | 90 | 90 | 100 |
| O=C(NS(=O)(=O)c1c(Cl)cccc1Cl)c1cc(-c2ncccc2Cl)n(-c2ccccc2Cl)n1 [Example 266] | 90 | 90 | 100 |
| COc1cc(C(=O)NS(=O)(=O)c2c(Cl)cccc2Cl)nn1-c1ccccc1Cl [Example 270] | 90 | 100 | 100 |
| Cc1cc(C(=O)NS(=O)(=O)c2ccccc2Cl)nn1-c1ccccc1Cl [Example 271] | 100 | 100 | 100 |
| Cc1ccccc1S(=O)(=O)NC(=O)c1cc(C)n(-c2ccccc2Cl)n1 [Example 272] | 100 | 100 | 100 |
| COc1cccc(C)c1S(=O)(=O)NC(=O)c1cn(C)c(-c2c(F)cccc2F)n1 [Example 365] | 100 | 90 | – |
| Cn1cc(C(=O)NS(=O)(=O)c2ccc(C(F)(F)F)cc2Cl)nc1-c1c(F)cccc1F [Example 441] | 90 | 100 | – |
| Cn1cc(C(=O)NS(=O)(=O)c2ccc(C(F)(F)F)cc2Br)nc1-c1c(F)cccc1F [Example 442] | 90 | 90 | – |
| Cc1ccccc1S(=O)(=O)NC(=O)c1cn(C)c(-c2cccc3c2OC(F)(F)O3)n1 [Example 542] | 90 | 100 | – |
